Experiment in all cases: NCI-60 cell line screen, 48 h
In test [1] the test system is HS 578T breast.
The subject of test [2] is NCI-H23 lung.
Test [3] relates to DU-145 prostate.
The subject of test [4] is T-47D breast.
The subject of test [5] is A498 renal.
Test [6] has as its system UO-31 renal.
Test [7] concerns 786-0 renal.
For test [8], the system named is HCC-2998 colon.
Test [9] concerns SK-MEL-28 melanoma.
For test [10], the system named is OVCAR-5 ovarian.

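The compound was tested at five concentrations on cells cultured in 96-well plates, with a 48-hour exposure period. At the GI50, growth is halved. Definition used: TGI = concentration required for complete inhibition of growth.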

Take `CC(C)[C@@H]1NC(=O)[C@]2(C)CSC(=N2)c2ccnc(c2)CNC(=O)C[C@@H](/C=C/CCS)OC1=O`: the GI50 in test [1] was 0.0407 µM; in [2] it was 0.303 µM; in [3] it was 0.231 µM; in test [4] it was 1.73 µM; in [5] it was 0.0323 µM; in test [6], 1.56 µM. Moreover, the GI50 in [7] is 0.911 µM; in test [8] it was 0.173 µM; in [9] it was 0.119 µM; in test [10], 0.156 µM. Moreover, the TGI in test [2] is above 31.4 µM; in [3] it was above 100 µM; in test [4], 6.91 µM; in test [5] it was 0.254 µM; in test [6], 23.1 µM; in test [7], above 28 µM. Besides, the TGI in [8] was 0.869 µM; in [9] it was 3.46 µM; in test [10], above 100 µM.
For the compound `C[C@@H]1CC[C@H]2C(C)(C)[C@H]3C[C@@]12CC[C@@]3(C)O`, the TGI in test [1], in test [2], in [3], in test [4], in test [5] and in test [6] was above 100 µM each time. In addition, the TGI in test [7], in [8], in test [9] and in test [10] was above 100 µM in each case.
For the compound `COC1=CC(=O)C(C2(OC(C)C)OC(=O)C(Cl)=C2Cl)=CC1=O` (stereo not drawn), the TGI in test [1], in test [2], in test [3], in test [4], in test [5] and in test [6] was above 100 µM each time. In addition, the TGI was 86.4 µM in [7], above 100 µM in [8], above 100 µM in test [9] and above 100 µM in test [10].
For `CC(=C(c1ccc(OCCN2CCCCC2)cc1)c1ccc(OCCN2CCCCC2)cc1)c1ccc(Cl)cc1`, the GI50 in [1] is 0.458 µM; in [2] it was 0.466 µM; in [3], 0.458 µM; in test [4], 0.43 µM; in test [5], 0.386 µM; in test [6], 0.354 µM. The GI50 in test [7] is 0.419 µM; in [8] it was 0.396 µM; in [9] it was 0.422 µM; in test [10], 0.417 µM. Moreover, the TGI is 1.04 µM in test [1]; 0.913 µM in [2]; 0.87 µM in test [3]; 1.04 µM in test [4]; 0.755 µM in test [5]; 0.681 µM in test [6]. The TGI turned out to be 0.805 µM in test [7], 0.755 µM in test [8], 0.773 µM in test [9] and 0.771 µM in [10].
On to `C=C(C)C12OC1[C@@]1(C)C(=CC2=O)CCC(O)[C@@H]1C` (stereo partly drawn), for which the TGI was 9.26 µM in [1]; 16.2 µM in test [2]; 33.1 µM in test [3]; 78.4 µM in test [4]; 62.5 µM in test [5]; 41.9 µM in test [6]. In addition, the TGI was 13.4 µM in [7], 17.6 µM in [8], above 100 µM in test [9] and above 100 µM in test [10].
In the case of `CC(C)(C)[Si](C)(C)OC1[C@@H](O[Si](C)(C)C(C)(C)C)[C@@H](CNC(=O)NC(=O)C(F)(F)F)O[C@H]1n1cnc2c(NC(=O)Nc3ccccc3)ncnc21` (stereo partly drawn), the GI50 was 4.5 µM in test [1]; 8.77 µM in test [2]; 6.52 µM in test [3]; 5.64 µM in [4]; 6.34 µM in [5]; 7.68 µM in test [6]. Besides, the GI50 in test [7] is 6.58 µM; in test [8], 4.28 µM; in [9], 8.04 µM; in test [10], 7.89 µM. Moreover, the TGI in [1] was 17.2 µM; in test [2], 16.6 µM; in test [3], 13.2 µM; in test [4] it was 11.8 µM; in test [5], 13 µM; in [6], 15.6 µM. Besides, the TGI stood at 13.4 µM in test [7], 10.6 µM in test [8], 15.2 µM in test [9] and 14.6 µM in test [10].
For the compound `O=C1NC(=NCc2ccccc2)S/C1=C\c1ccc2ncccc2c1`, the GI50 in test [1], in test [2], in test [3], in test [4], in test [5] and in test [6] was above 25 µM each time. Besides, the GI50 in [7], in test [8], in [9] and in test [10] was above 25 µM each time. Further, the TGI in test [1], in [2], in test [3], in test [4], in test [5] and in test [6] was above 25 µM each time. In addition, the TGI in test [7], in test [8], in [9] and in test [10] was above 25 µM in each case.
`Cc1cc2c(cc1C)[n+](=O)c(C(=O)c1ccccc1)c(C(F)F)n2[O-]`: the GI50 in test [1] was 32 µM; in [2], 26.3 µM; in [3] it was 10.5 µM; in [4], 30.3 µM; in [5], 24.5 µM; in [6], 19.2 µM. Moreover, the GI50 in test [7] was 32 µM; in test [8], 32.8 µM; in test [9], 17.8 µM; in [10], 36.4 µM. In addition, the TGI in test [1] was above 100 µM; in [2], above 100 µM; in test [3], 46.4 µM; in test [4] it was above 100 µM; in test [5], 91.1 µM; in test [6], above 100 µM. Moreover, the TGI in [7], in [8], in test [9] and in test [10] was above 100 µM each time.
With `c1ccc(-c2n(Cc3ccc4ccccc4n3)cc[n+]2Cc2ccc3ccccc3c2)cc1`, the GI50 was 1.94 µM in [1]; 0.731 µM in test [2]; 2.7 µM in [3]; 0.378 µM in test [4]; 1.16 µM in [5]; 2.93 µM in test [6]. In addition, the GI50 in test [7] is 2.24 µM; in test [8] it was 0.767 µM; in test [9], 0.936 µM; in test [10] it was 2.05 µM. The TGI in test [1] is 6.31 µM; in test [2], 4.87 µM; in [3], 11.3 µM; in [4] it was 4.36 µM; in [5] it was 4.79 µM; in test [6], 13.2 µM. The TGI in test [7] was 6.12 µM; in test [8] it was 2.24 µM; in test [9], 2.84 µM; in test [10], 7.27 µM.
For `CC(=O)Nc1cc2ccc(=O)oc2cc1Cl`, the TGI in [1], in [2], in [3], in [4], in [5] and in [6] was above 100 µM in each case. The TGI in test [7], in test [8], in [9] and in test [10] was above 100 µM throughout.
On to `O=C(Nc1nn2c(-c3cc(C(F)(F)F)cc(C(F)(F)F)c3)nnc2s1)C1CCCC1`, for which the GI50 is 0.706 µM in test [1]; 0.394 µM in test [2]; 1.95 µM in test [3]; 0.375 µM in test [4]; 0.255 µM in test [5]; 0.402 µM in test [6]. The GI50 in test [7] is 0.663 µM; in [8], 0.685 µM; in [9], 0.734 µM; in test [10], 2.63 µM. Moreover, the TGI was above 100 µM in test [1]; above 100 µM in test [2]; above 100 µM in test [3]; above 24.6 µM in [4]; 2.92 µM in test [5]; 5.57 µM in [6]. Also, the TGI in test [7] was above 32.8 µM; in [8], above 100 µM; in [9] it was above 100 µM; in test [10], above 100 µM.
With `O=C1OCC2=C1C(c1cccc(Br)c1)c1cc3c(cc1N2CCO)OCCO3` (stereo not drawn), the GI50 in test [1] was 0.0715 µM; in test [2] it was 0.0911 µM; in test [3] it was 0.107 µM; in test [4], 0.379 µM; in test [5], 0.0167 µM; in test [6] it was 0.127 µM. The GI50 is 0.0695 µM in test [7], 0.0927 µM in [8], 0.0884 µM in test [9] and 0.221 µM in test [10]. Besides, the TGI is above 21.3 µM in test [1]; above 44.5 µM in test [2]; 0.752 µM in test [3]; above 41.3 µM in test [4]; 0.466 µM in [5]; 36.5 µM in test [6]. Also, the TGI in [7] is 3.66 µM; in test [8] it was 1.71 µM; in test [9], above 50 µM; in [10], above 33.7 µM.
For the compound `NCCNCCNCCN`, the GI50 in test [1], in test [2], in test [3], in test [4], in test [5] and in test [6] was above 100 µM each time. Also, the GI50 in test [7], in [8], in test [9] and in [10] was above 100 µM in each case. Further, the TGI in [1], in test [2], in test [3], in test [4], in test [5] and in test [6] was above 100 µM throughout. For the same compound, the TGI in test [7], in [8], in test [9] and in test [10] was above 100 µM each time.
On to `COC(=O)/C=C/c1cc(OC(C)=O)c2c(c1)[C@@H](C(=O)OC)[C@H](c1ccc(OC(C)=O)c(OC(C)=O)c1)O2`, for which the GI50 in test [1] was 0.0343 µM; in [2] it was 0.0912 µM; in test [3], 0.0636 µM; in [4], 0.452 µM; in test [5], 1.01 µM; in [6], 0.131 µM. For the same compound, the GI50 in test [7] was 0.0958 µM; in test [8], 0.514 µM; in test [9], 0.852 µM; in [10], 0.95 µM. Further, the TGI is 17.7 µM in [1]; 29.7 µM in [2]; 67.3 µM in test [4]; 7.97 µM in test [5]; 38 µM in test [6]; above 100 µM in test [7]. In addition, the TGI in test [8] was 22 µM; in test [9], 80.8 µM; in test [10], above 100 µM.
As to `O=C1c2ccccc2C(=O)c2c(/C=C\N3CCCCC3)ccnc21`, the TGI was 4.32 µM in test [1]; 1.31 µM in [2]; 2.96 µM in test [3]; above 44 µM in [4]; 31.8 µM in test [5]; 23.4 µM in [6]. The TGI in test [7] came out at 31.3 µM; in test [8], 11.9 µM; in [9] it was 2.96 µM; in test [10] it was 16.2 µM.

These data come from PubChem BioAssay (NCI).
